Measured values from article PMC9414676, “Experimental Studies Indicate That ST-2223, the Antagonist of Histamine H3 and Dopamine D2/D3 Receptors, Restores Social Deficits and Neurotransmission Dysregulation in Mouse Model of Autism” (Pharmaceuticals, 2022).

How the values were obtained:
[1] = tested on: dopamine levels in BTBR mice brain; test: Dopamine levels by LC-MS/MS in brain regions; type: in vivo; parameters: key to Dopamine level: ↔: No significant alterations; ↑: significant increase; ↑↑: additional significant increase vs. ST-2223-treated mice; ↓: significant decrease; details: ARP 1 mg/kg i.p. chronic, vs VEH-treated BTBR mice
Experimental: (§1) All the mice were randomly divided into nine groups of 5–7 mice each. The mice were injected intraperitonially once daily for 21 days with different doses of ST2223 (2.5, 5, and 10 mg/kg, i.p.), ARP 1 mg/kg or vehicle (1% DMSO in 0.9% normal saline). Group I, B6 mice were injected with vehicle served as control. Group II, BTBR mice were treated with vehicle. Groups III–V, BTBR mice received i.p. injections of different doses of ST2223 (2.5, 5, and 10 mg/kg, i.p.), respectively. Group VI, BTBR mice were injected with ARP (1 mg/kg, i.p.). For abrogation studies, Group VII, BTBR mice were treated with ST2223 (5 mg/kg, i.p.) along with RAM (10 mg/kg, i.p.). Group VIII, B6 mice were co-injected with vehicle and RAM (10 mg/kg, i.p). All treatments and vehicle (VEH) were administered 30–45 min before each behavioral test. The doses of these drugs were selected based on previous reports. Behavioral testing was performed between 9:00 am and 3:00 pm in an order randomized by group and in the following sequence: social approach test (SAT) and open field locomotor test (OFL). The chronic treatment started one week before the behavioral test and was continued for a total of 21 days as described above (Figure 7). Following behavioral tests, i.e., on day 21 of systemic treatment, five of the animals were sacrificed. The animals were deeply anesthetized with pentobarbital (40 mg/kg, i.p., body weight). To wash out the blood, cardiac perfusion was carried out using 0.01 M phosphate-buffered saline (PBS) at pH 7.4. The brains were quickly removed and placed on an ice plate, where the cerebellum, hippocampus, prefrontal cortex, and striatum were excised from the brain and snap-frozen in liquid nitrogen for later LC-MS/MS analysis.
(§2) Perfusion was done on anesthetized animals using 1X PBS as described previously. Different regions of the brain were snap frozen. Frozen tissues were then weighed and homogenized in a 10-fold volume of acetonitrile. For 50mg of tissue, 500 µL of acetonitrile and Internal standard mix were added and homogenized. Homogenates were centrifuged at 15,000 rcf for 15 min at 4 °C. Tissue levels of dopamine, acetylcholine, histamine, and their metabolites were assessed using LC-MS/MS. LC-MS/MS analysis was conducted utilizing Waters BEH C18 COLUMN (2.1 × 100 mm, 1.7 µm) using Waters Acquity UPLC Binary Solvent Manager and FTN Sample Manager. The system was run in gradient mode with mobile phase A consisting of LC-MS GRADE WATER + 0.1% FORMIC ACID and mobile phase B consisting of 100% ACETONITRILE. Mobile phase was duly filtered through 0.2 µm filter and degassed ultrasonically for 15 min prior to use. Separations were performed at room temperature with 0.3 mL/min flow rate gradient starting with 90% of A for up to 0.5 min. Then, % of A was decreased gradually until it reached 20% at 2.5 min after which at 3 min %A was brought back to the initial condition and left for equilibration for 2 more minutes before the next injection (total 5 min run time). The injection volume was kept at 1 µL. Mass spectrometric detection was performed in multiple reaction monitoring (MRM) mode with positive electrospray ionization (ESI+) on Xevo TQS mass spectrometer (Waters, Milford, MA) equipped with an electrospray ionization (ESI) source and triple quadrupole mass analyzer. MRM transitions and instrument parameters were set by tuning the instrument by infusing each analyte. MRM transitions taken for quantification were 146.2 > 87.1 for Acetylcholine, 112.2 > 95.2 for Histamine, 154.1 > 137.2 for Dopamine, 150.2 > 91.3 for Acetylcholine D4, and […] > 99.3 for Histamine D4. Capillary Voltage, Source Offset, Source Temperature, De solvation Temperature, Cone Gas Flow, De solvation Gas Flow, Collision Gas Flow, Nebulizer Gas Flow were set as 3.0 (kV), 60.0 (V), 150 (°C), 550 (°C), 150 (L/Hr), 1000 (L/Hr), 0.13 (mL/min), and 7 (Bar), correspondingly. […]

[2] = tested on: prefrontal cortex of B6 mice; parameters: method as in PMID 16023290; details: 0.3 mg/kg of ARP; cited from earlier work
[3] = tested on: acetylcholine levels in BTBR mice brain; test: Acetylcholine levels by LC-MS/MS in brain regions; type: in vivo; parameters: key to Acetylcholine level: ↔: No significant alterations; ↑: significant increase; ↑↑: additional significant increase vs. ST-2223-treated mice; ↓: significant decrease; details: for Acetylcholine level: ARP 1 mg/kg i.p. chronic, vs VEH-treated BTBR mice
Experimental: as §1, §2

[4] = tested on: histamine levels in BTBR mice brain; test: Histamine levels by LC-MS/MS in brain regions; type: in vivo; parameters: key to Histamine level: ↔: No significant alterations; ↑: significant increase; ↑↑: additional significant increase vs. ST-2223-treated mice; ↓: significant decrease; details: ARP 1 mg/kg i.p. chronic, vs VEH-treated BTBR mice
Experimental: as §1, §2

BTBR mice [5] = test: Open field locomotor test (OFL), anxiety-like behavior and locomotion; type: in vivo; details: ARP 1 mg/kg i.p. chronic
Experimental: as §1
Open field locomotor test (OFL) systematically assesses exploratory activity based on subjecting an animal to an unfamiliar environment whose escape is prevented by surrounding walls. It is a model of anxiety-like behavior, suitable for assessing motor activity as a reaction to an unknown environment, i.e., locomotion motivated by exploration. Both general locomotor activity and anxiety-related behaviors were assessed as the mice were placed individually inside an open field arena (45 × 45 × 30 cm) and were allowed to move freely for 10 min [80]. Mice were introduced into the center area of the arena (23 × 23 cm) and given 5 min habituation before actual behaviors recording. The overall distance moved inside the complete arena and time spent in the center and periphery was recorded for 10 min using CCD camera-assisted motion tracking equipment and software program (EthoVision 3.1, Noldus Information Technology, The Netherlands). Measurements obtained included total distance traveled and center and periphery time spent for […]. After each testing sessions, chambers we cleaned with 70% ethanol, and enough time was allowed for ethanol evaporation and odor dissipation. When evaluating the results, more time spent in the center indicated low levels of anxiety-like behaviors and total distance travelled represented locomotor activity.

BTBR mice [6] = test: Social approach test (SAT), social novelty preference (novel mouse vs familiar mouse); type: in vivo; details: ARP 1 mg/kg i.p. chronic, p < 0.001
Experimental: as §1
The social approach test (SAT) was performed using an automated three-chamber device (EthoVision® Software, Noldus, The Netherlands) as previously described. The transparent polycarbonate chamber is rectangular and is composed of three interconnected partitions (homemade), which are separated by two sliding doors. […] For 10 min, the test mouse was allowed to explore all three chambers and cups, and the time spent interacting with NO and NM (sniffing) was automatically recorded by EthoVision® Software. […] The study mouse is allowed to explore the three chambers for 10 min, and the time spent for interacting with both mice was automatically recorded, to assess social novelty preference. […] To allow the direct comparison of social behavior between the treated groups, the sociability index (SI) and social novelty index (SNI) were calculated with the following formula, as previously described: SI=(Time exploring NM−Time exploring NO)/(Time exploring NM+Time exploring NO) SNI=(Time exploring NM−Time exploring FM)/(Time exploring NM+Time exploring FM)

BTBR mice [7] = test: Social approach test (SAT), sociability (novel mouse vs novel object); type: in vivo; details: ARP 1 mg/kg i.p. chronic
Experimental: as §1
The social approach test (SAT) was performed using an automated three-chamber device (EthoVision® Software, Noldus, The Netherlands) as previously described. The transparent polycarbonate chamber is rectangular and is composed of three interconnected partitions (homemade), which are separated by two sliding doors. In brief, after 10 min of habituation, the study mouse was placed in the central chamber with the doors opened, and the mouse was given the choice to interact with either an empty plastic cup located in one side chamber, referred to as a novel object (NO), or a similar plastic cup with an unfamiliar mouse inside it located in the opposite chamber, referred to as a novel mouse (NM), which was matched in age, sex, and strain with test mouse. To avoid innate side preferences, the plastic cup for NO and NM were randomly placed in either chamber and the placement was changed between studies and between mice. For 10 min, the test mouse was allowed to explore all three chambers and cups, and the time spent interacting with NO and NM (sniffing) was automatically recorded by EthoVision® Software. Immediately after this session, a novel mouse is kept in the empty cup and is referred to as novel mouse (NM), and the mouse in the other cup from the earlier session is referred to as familiar mouse (FM). The study mouse is allowed to explore the three chambers for 10 min, and the time spent for interacting with both mice was automatically recorded, to assess social novelty preference. Eight groups of 7 mice/group were used for the SAT. To allow the direct comparison of social behavior between the treated groups, the sociability index (SI) and social novelty index (SNI) were calculated with the following formula, as previously described: SI=(Time exploring NM−Time exploring NO)/(Time exploring NM+Time exploring NO) SNI=(Time exploring NM−Time exploring FM)/(Time exploring NM+Time exploring FM)

## O=C1CCc2ccc(OCCCCN3CCN(c4cccc(Cl)c4Cl)CC3)cc2N1 [ARP, aripiprazole, reference compound]
[1]; Cerebellum
  Dopamine level: ↓^b
[1]; Hippocampus
  Dopamine level: ↓^b
[1]; Prefrontal cortex
  Dopamine level: ↔
[2]
  DA levels in dialysate: significant increase of DA levels in dialysate
[3]; ARP 1 mg/kg chronic, p < 0.05
  acetylcholine levels: signified increase in the levels of acetylcholine in the prefrontal cortex, cerebellum, and striatum tissues
[3]; Cerebellum
  Acetylcholine level: ↑ ^b
[3]; Hippocampus
  Acetylcholine level: ↔
[3]; Prefrontal cortex
  Acetylcholine level: ↑ ^b
[3]; Striatum
  Acetylcholine level: ↑ ^b
[4]; p < 0.05
  levels of histamine in brain regions: increased the levels of histamine in the cerebellum, striatum, and hippocampus
[4]; Cerebellum
  Histamine level: ↑ ^b
[4]; Hippocampus
  Histamine level: ↑ ^b
[4]; Prefrontal cortex
  Histamine level: ↔
BTBR mice [5]
  abnormal anxiety observed by BTBR mice: failed to restore the abnormal anxiety
  time spent in the periphery: no group differences
BTBR mice [5]; p < 0.01
  total distance travelled vs VEH-treated BTBR mice: significantly decreased the total distance travelled
BTBR mice [6]
  preference to novel mouse (NM) over familiar mouse (FM) vs VEH-treated BTBR mice: enhanced preference to stranger NM over FM
BTBR mice [7]
  sociability, time exploring NM compared to NO: markedly increased sociability
BTBR mice [7]; p < 0.001
  exploring time spent with NM vs VEH-treated BTBR mice: significantly improved exploring time spent with NM
